{"source": "paper PMC11303713", "about": "“Allosteric inhibition of CFTR gating by CFTRinh-172 binding in the pore” (Nature Communications, 2024)", "key": {"[1]": {"biological_target": "T1, human WT-CFTR (Homo sapiens, UniProt P13569)", "T1 construct": "the native wild-type CFTR construct without any deletion or mutation; expressed in transfected cells; host or cells: CHO cells, pcDNA plasmid", "test": "Inside-out patch-clamp inhibition of CFTR current by Inh-172", "assay_type": "cell-based", "conditions": "for inhibition at 0.05 µM: 50 nM Inh-172; for inhibition at 0.1 µM: 100 nM Inh-172; for inhibition at 1 µM: 1000 nM Inh-172", "protocol": "(§1) CHO cells were grown at 37 °C in Dulbecco’s modified Eagle’s medium supplemented with 10% (vol/vol) fetal bovine serum (Sigma-Aldrich, St. Louis, MO). pcDNA plasmids carrying the desired CFTR construct were transfected to CHO cells using PolyFect transfection reagent (Qiagen, Hilden, Germany) together with green fluorescence protein (GFP) cDNA (pEGFP-C3, Takara Bio, Shiga, Japan) that helps identify expression of CFTR. Cells were first incubated with the transfection reagents at 37 °C for 6-12 hours on sterile glass chips in 35-mm tissue culture dishes before transferred to 27 °C for incubation for 2–7 days. Primers for mutations were ordered from Integrated DNA Technologies (Coralville, IA) and were summarized in Supplementary Data. All CFTR mutants were prepared with QuikChange XL kit (Agilent, Santa Clara, CA) and sequenced at the DNA Core facility at University of Missouri-Columbia.\n(§2) Patch-clamp pipettes were made from borosilicate capillary glass using a two-stage vertical puller (PP-81; Narishige, Amityville, NY). The pipette tips were fire polished with a homemade microforge to yield a pipette resistance of 2–5 MΩ when filled with a pipette solution containing (in mM): 140 NMDG-Cl (N-methyl-D-glucamine-chloride), 5 CaCl2, 2 MgCl2, and 10 HEPES, pH 7.4. For recordings, transfected cells on glass chips were transferred into a continuously perfused chamber on the stage of an inverted microscope (IX51; Olympus, Tokyo, Japan) with the perfusing solution containing (in mM): 150 NMDG-Cl, 2 MgCl2, 10 EGTA, 8 Tris, and 10 HEPES, pH 7.4. The membrane patch was excised to an inside-out configuration with a seal resistance >40 GΩ. CFTR currents were recorded with an amplifier (EPC9; HEKA, Holliston, MA), filtered through an eight-pole Bessel filter (LPF-8; Warner Instruments, Hamden, CT) at 100 Hz and digitized to a computer at a sampling rate of 500 Hz with Pulse software (version 8.53; HEKA). The membrane potential was held at −30 mV. Solution exchange was achieved by a fast solution change system (SF-77B; Warner Instruments). Inh-172 was obtained from the CFTR Chemical Compound Program supported by the Cystic Fibrosis Foundation. All experiments were performed at room temperature.\n(§3) The steady state mean currents were measured in the Igor Pro software (version 8.0; WaveMetrics). The mean baseline currents were subtracted from the steady state mean currents before the data were used to determine the degrees of inhibition. The degrees of inhibition by CFTR inhibitor 172 were calculated based on the equation:1 %inhibition=1−IInh−172/I0X100% where I0 and Iinh−172 represent uninhibited and inhibited currents, respectively. The IC50 and Hill coefficients were obtained by fitting percent inhibition as a function of [Inh-172] with the Hill equation:2 %inhibition=base+(max−base)/1+xhalf/x^rate where max and base represent the […] percent inhibition by Inh-172, x represents the concentration of Inh-172, and the rate is the Hill coefficient. The estimated IC50 (xhalf) and Hill coefficients are listed in Table 1 as mean ± standard deviation. Each patch-clamp recording was made from a separate cell."}, "[2]": {"biological_target": "T2, h-pTMD2-h-CFTR (human CFTR with pig CFTR's TMD2) (Homo sapiens, UniProt P13569, A1009S/A789T/A797V/A842T/E1221D/E815D/F931L/G885K/H897K/H950R/I1005V/I1226V/I853V/I869V/I982V/INS1173D/K1174Q/K1177R/K830R/L805I/L889P/M1028L/M837V/M929L/N1184D/N782S/N886K/P888S/Q1012K/Q1035H/R1128T/R899A/S1196Q/S877C/S898G/S912A/T1171A/T1176N/T1179F/T1220V/T788A/T925G/V1017L/V1056I/V794M/W882C/Y1182S)", "T2 construct": "expressed in transfected cells; host or cells: CHO cells, pcDNA plasmid", "T2 sequence (P13569 with tags, fused parts or gaps with the stated changes)": "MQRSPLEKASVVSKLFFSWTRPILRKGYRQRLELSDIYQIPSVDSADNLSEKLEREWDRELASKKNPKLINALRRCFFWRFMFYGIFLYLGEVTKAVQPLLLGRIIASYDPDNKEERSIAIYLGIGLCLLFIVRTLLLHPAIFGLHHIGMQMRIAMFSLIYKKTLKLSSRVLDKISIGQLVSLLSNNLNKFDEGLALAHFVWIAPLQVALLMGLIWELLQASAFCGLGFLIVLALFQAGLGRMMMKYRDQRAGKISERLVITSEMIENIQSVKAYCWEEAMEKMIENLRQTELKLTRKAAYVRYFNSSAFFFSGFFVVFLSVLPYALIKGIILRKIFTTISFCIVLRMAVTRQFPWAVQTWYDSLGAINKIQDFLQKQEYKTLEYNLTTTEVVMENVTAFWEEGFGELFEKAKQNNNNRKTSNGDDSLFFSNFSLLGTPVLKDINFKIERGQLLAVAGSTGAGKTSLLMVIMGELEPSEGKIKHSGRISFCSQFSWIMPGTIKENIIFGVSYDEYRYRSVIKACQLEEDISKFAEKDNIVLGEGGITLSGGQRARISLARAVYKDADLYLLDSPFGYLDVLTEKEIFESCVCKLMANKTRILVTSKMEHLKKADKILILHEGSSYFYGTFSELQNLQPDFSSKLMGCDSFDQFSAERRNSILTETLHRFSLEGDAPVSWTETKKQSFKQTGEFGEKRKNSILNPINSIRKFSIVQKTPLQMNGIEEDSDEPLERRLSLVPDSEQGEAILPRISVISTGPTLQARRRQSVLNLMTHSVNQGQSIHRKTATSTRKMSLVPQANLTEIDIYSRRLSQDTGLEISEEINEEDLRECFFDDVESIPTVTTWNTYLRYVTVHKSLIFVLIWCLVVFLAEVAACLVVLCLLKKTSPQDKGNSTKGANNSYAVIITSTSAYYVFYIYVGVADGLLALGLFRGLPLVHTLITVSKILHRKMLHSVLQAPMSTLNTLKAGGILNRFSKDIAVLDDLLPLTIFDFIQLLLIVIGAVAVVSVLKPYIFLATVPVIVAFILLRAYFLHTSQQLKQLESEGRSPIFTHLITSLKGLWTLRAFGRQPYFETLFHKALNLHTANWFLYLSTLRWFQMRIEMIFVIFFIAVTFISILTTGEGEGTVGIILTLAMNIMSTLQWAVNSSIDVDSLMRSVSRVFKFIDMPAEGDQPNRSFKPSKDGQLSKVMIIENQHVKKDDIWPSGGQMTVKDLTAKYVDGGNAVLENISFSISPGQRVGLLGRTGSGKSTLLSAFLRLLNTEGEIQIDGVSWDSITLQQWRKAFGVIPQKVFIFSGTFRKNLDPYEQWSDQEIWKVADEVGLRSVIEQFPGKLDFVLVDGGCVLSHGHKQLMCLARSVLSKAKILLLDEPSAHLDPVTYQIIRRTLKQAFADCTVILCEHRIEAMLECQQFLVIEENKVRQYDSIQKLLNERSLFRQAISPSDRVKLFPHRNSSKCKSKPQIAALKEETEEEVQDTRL", "test": "Inside-out patch-clamp inhibition of CFTR current by Inh-172", "assay_type": "cell-based", "conditions": "for inhibition at 0.5 µM: 500 nM Inh-172; for inhibition at 1 µM: 1000 nM Inh-172; for inhibition at 10 µM: 10000 nM Inh-172", "protocol": "as §1, §2, §3"}, "[3]": {"test": "Visible precipitates in perfusion solution", "assay_type": "physicochemical", "description": "Point 7 (poorly deﬁned dose-response curves): The authors response would seem to explain why points may be missing from the left side of the plot (Fig 4e), but I don't think it explains their absence from the right side. The data points for the three mutants roughly deﬁne a straight line. In order to have a meaningful ﬁt that can be used to extract a reliable IC50, one needs to sample higher and lower concentrations than the authors have done.\nWhile I understand that there may be technical limitations that make this difficult or impossible, I think scientiﬁc rigor still has to be maintained. If the experiment cannot be done properly due to technical limitations, that is ﬁne, but low quality data should not be interpreted and presented. […]\nand include in a publication. I also still think that the way the authors are reporting signiﬁcant ﬁgures this is not good practice, though this aspect is more of a stylistic/precision issue.\nIn Fig. 4e, we added 25 nM and 10 µM data points for WT-CFTR, and the newly added data […]\nadded 10 µM data point for M348K-CFTR, so that for all tested mutants, the maximum [Inh-172] is 10 µM (All related ﬁgures in the main text are updated). We could not increase [Inh-172] further because precipitates were seen gushing out of our perfusion tubing at concentrations ≥ 20 µM. […]"}, "[4]": {"conditions": "read-out: percent inhibition of current, Mean"}, "[5]": {"conditions": "read-out: percent inhibition of current, individual cell"}}, "note": "Like-named read-outs stand apart in the source and are kept apart here.", "data": [{"smiles": "O=C(O)c1ccc(/C=C2\\SC(=S)N(c3cccc(C(F)(F)F)c3)C2=O)cc1", "note": "[Inh-172, CFTRinh-172]", "values": [{"measurement": "inhibition at 0.025 µM", "setting": "[1]; 25 nM Inh-172, read-out: percent inhibition of current, Mean", "result": 27.2, "unit": "%"}, {"measurement": "inhibition at 0.05 µM", "setting": "[1]; [4]", "result": 33.5, "unit": "%"}, {"measurement": "inhibition at 0.05 µM", "setting": "[1]; [5]", "result": 28, "unit": "%"}, {"measurement": "inhibition at 0.1 µM", "setting": "[1]; [4]", "result": 60.2, "unit": "%"}, {"measurement": "inhibition at 0.1 µM", "setting": "[1]; [5]", "result": 53, "unit": "%"}, {"measurement": "inhibition at 0.5 µM", "setting": "[1]; 0.5 µM Inh-172, read-out: WT-CFTR current inhibited", "result": 80, "unit": "%"}, {"measurement": "inhibition at 0.5 µM", "setting": "[1]; 500 nM Inh-172, read-out: percent inhibition of current, Mean", "result": 81, "unit": "%"}, {"measurement": "inhibition at 0.5 µM", "setting": "[1]; 500 nM Inh-172, read-out: percent inhibition of current, individual cell", "result": 75, "unit": "%"}, {"measurement": "inhibition at 1 µM", "setting": "[1]; [4]", "result": 91.4, "unit": "%"}, {"measurement": "inhibition at 1 µM", "setting": "[1]; [5]", "result": 88, "unit": "%"}, {"measurement": "inhibition at 10 µM", "setting": "[1]; 10000 nM Inh-172, read-out: percent inhibition of current, individual cell", "result": 89, "unit": "%"}, {"measurement": "Hill Coefficient", "setting": "[1]; Human WT", "result": "0.88 ± 0.09"}, {"measurement": "Hill Coefficient", "setting": "[1]; Human WT + 200 nM VX-770", "result": "1.07 ± 0.10"}, {"measurement": "IC50", "setting": "[1]; Human WT + 200 nM VX-770", "result": "0.25 ± 0.02", "unit": "µM"}, {"measurement": "Hill Coefficient", "setting": "[1]; Human WT + 1 µM VX-770", "result": "0.98 ± 0.02"}, {"measurement": "IC50", "setting": "[1]; Human WT + 1 µM VX-770", "result": "0.42 ± 0.01", "unit": "µM"}, {"measurement": "IC50", "setting": "[1]; Human WT, inside-out patch, -30 mV, 2 mM ATP, Hill fit", "result": "0.08 ± 0.01", "unit": "µM"}, {"measurement": "IC50", "setting": "[1]; human CFTR, value of earlier manuscript version quoted in peer review file", "result": 0.083, "unit": "µM"}, {"measurement": "inhibition at 0.1 µM", "setting": "[2]; 100 nM Inh-172, read-out: percent inhibition of current, Mean", "result": 6.8, "unit": "%"}, {"measurement": "inhibition at 0.5 µM", "setting": "[2]; [4]", "result": 18.8, "unit": "%"}, {"measurement": "inhibition at 0.5 µM", "setting": "[2]; [5]", "result": 15, "unit": "%"}, {"measurement": "inhibition at 1 µM", "setting": "[2]; [4]", "result": 28.5, "unit": "%"}, {"measurement": "inhibition at 1 µM", "setting": "[2]; [5]", "result": 22, "unit": "%"}, {"measurement": "inhibition at 5 µM", "setting": "[2]; 5000 nM Inh-172, read-out: percent inhibition of current, Mean", "result": 56.5, "unit": "%"}, {"measurement": "inhibition at 10 µM", "setting": "[2]; [4]", "result": 62.7, "unit": "%"}, {"measurement": "inhibition at 10 µM", "setting": "[2]; [5]", "result": 68, "unit": "%"}, {"measurement": "Hill Coefficient", "setting": "[2]; h-pTMD2-h", "result": "0.69 ± 0.04"}, {"measurement": "IC50", "setting": "[2]; h-pTMD2-h", "result": "4.02 ± 0.28", "unit": "µM"}, {"measurement": "IC50", "setting": "[2]; human CFTR with pig TMD2, earlier manuscript version, peer review file", "result": 4.02, "unit": "µM"}, {"measurement": "concentration at which precipitates were seen", "setting": "[3]", "result": "≥ 20", "unit": "µM"}]}]}
